Non-standard residues stand in square brackets, D forms with d. Residues, ends and D or L forms follow the SMILES beside them. Cha = N[C@@H](CC1CCCCC1)C(=O)O; Ac6c = NC1(C(=O)O)CCCCC1; Nle = CCCC[C@H](N)C(=O)O; Aib = CC(C)(N)C(=O)O
molecular target: T1, PTH receptor present on SaOS-2 (human osteosarcoma cells) (Homo sapiens, UniProt Q03431); experiment: Binding to PTH receptor on SaOS-2 cells (competition with mono-125I-[Nle8,18,Tyr34(3-125I)]bPTH(1-34)NH2); conditions: Table I, 2 hrs at room temperature, read-out: Kd (half maximal inhibition of binding of mono-125I-[Nle8,18, Tyr34(3-125I)]bPTH(1-34)NH2)
T1 construct: host or cells: SaOS-2 human osteosarcoma cells (intact, confluent monolayers)
T1 sequence (Q03431 27-593): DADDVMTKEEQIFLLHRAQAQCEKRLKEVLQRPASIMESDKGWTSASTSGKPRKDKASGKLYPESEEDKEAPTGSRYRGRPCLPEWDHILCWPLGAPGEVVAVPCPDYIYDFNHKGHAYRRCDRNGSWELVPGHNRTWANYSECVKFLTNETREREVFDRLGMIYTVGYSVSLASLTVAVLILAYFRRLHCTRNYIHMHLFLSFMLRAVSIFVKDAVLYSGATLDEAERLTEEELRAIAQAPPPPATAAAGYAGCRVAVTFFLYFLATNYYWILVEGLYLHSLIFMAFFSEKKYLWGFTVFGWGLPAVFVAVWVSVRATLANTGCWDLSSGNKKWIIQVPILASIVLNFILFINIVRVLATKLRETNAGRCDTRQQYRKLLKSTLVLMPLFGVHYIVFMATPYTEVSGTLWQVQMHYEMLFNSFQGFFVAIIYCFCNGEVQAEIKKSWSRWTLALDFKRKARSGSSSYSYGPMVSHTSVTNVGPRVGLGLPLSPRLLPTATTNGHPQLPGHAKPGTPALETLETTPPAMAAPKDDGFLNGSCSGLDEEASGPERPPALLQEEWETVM
Description: A. Binding to PTH Receptor
The peptides of the invention were tested for their ability to bind to the PTH receptor present on SaOS-2 (human osteosarcoma cells). SaOS-2 cells (American Type Culture Collection, Rockville, Md.; ATCC #HTB 85) were maintained in RPMI 1640 medium (Sigma, St. Louis, Mo.) supplemented with 10% fetal bovine serum (FBS) and 2 mM glutamine at 37EC in a humidified atmosphere of 5% CO2 in air. The medium was changed every three or four days, and the cells were subcultured every week by trypsinization.
SaOS-2 cells were maintained for four days until they had reached confluence. The medium was replaced with 5% FBS in RPMI 1640 medium and incubated for 2 hrs at room temperature with 10×10^4 cpm mono-^125I-[Nle^8,18, Tyr^34(3-^125I)]bPTH(1-34)NH2 in the presence of a competing peptides of the invention at various concentrations between 10^−11 M to 10^−4 M. The cells were washed four times with ice-cold PBS and lysed with 0.1 M NaOH, and the radioactivity associated with the cells was counted in a scintillation counter. Synthesis of mono-^125I-[Nle^8,18, Tyr^34(3-^125I)]bPTH(1-34)NH2 was carried out as described in Goldman, M. E., et al., Endocrinol., 123:1468 (1988).
The binding assay was conducted with various peptides of the invention, and the Kd value (half maximal inhibition of binding of mono-^125I-[Nle^8,18, Tyr^34(3-^125I)]bPTH(1-34)NH2) for each peptide was calculated.

Structure (SMILES)	Kd
CC[C@H](C)[C@H](NC(=O)[C@H](CCC(=O)O)NC(=O)[C@H](CO)NC(=O)[C@@H](NC(=O)[C@@H](N)CO)C(C)C)C(=O)N[C@@H](CCC(N)=O)C(=O)N[C@@H](CC(C)C)C(=O)N[C@@H](CCSC)C(=O)N[C@@H](Cc1c[nH]cn1)C(=O)N[C@@H](CC(N)=O)C(=O)N[C@@H](CC(C)C)C(=O)NCC(=O)N[C@@H](CCCCN)C(=O)N[C@@H](Cc1c[nH]cn1)C(=O)N[C@@H](CC(C)C)C(=O)N[C@@H](CC(N)=O)C(=O)N[C@@H](CO)C(=O)N[C@@H](CCSC)C(=O)N[C@@H](CCC(=O)O)C(=O)N[C@@H](CCCNC(=N)N)C(=O)N[C@H](C(=O)N[C@@H](CCC(=O)O)C(=O)N[C@@H](Cc1c[nH]c2ccccc12)C(=O)N[C@@H](CC(C)C)C(=O)N[C@@H](CCCNC(=N)N)C(=O)N[C@@H](CCCCN)C(=O)N[C@@H](CCCCN)C(=O)N[C@@H](CC1CCCCC1)C(=O)N[C@@H](CCC(N)=O)C(=O)N[C@@H](CC(=O)O)C(=O)N[C@@H](CC1CCCCC1)C(=O)N[C@@H](Cc1c[nH]cn1)C(=O)N[C@@H](CC(N)=O)C(=O)N[C@@H](Cc1ccccc1)C(N)=O)C(C)C [[Cha^28,31]hPTH(1-34)NH2] (H-SVSEIQLMHNLGKHLNSMERVEWLRKK[Cha]QD[Cha]HNF-NH2)	60 nM
CC[C@H](C)[C@H](NC(=O)[C@H](CCC(=O)O)NC(=O)[C@H](CO)NC(=O)[C@@H](NC(=O)[C@@H](N)CO)C(C)C)C(=O)N[C@@H](CCC(N)=O)C(=O)N[C@@H](CC(C)C)C(=O)N[C@@H](CCSC)C(=O)N[C@@H](Cc1c[nH]cn1)C(=O)N[C@@H](CC(N)=O)C(=O)N[C@@H](CC(C)C)C(=O)NCC(=O)N[C@@H](CCCCN)C(=O)N[C@@H](Cc1c[nH]cn1)C(=O)N[C@@H](CC(C)C)C(=O)N[C@@H](CC(N)=O)C(=O)N[C@@H](CO)C(=O)N[C@@H](CCSC)C(=O)N[C@@H](CCC(=O)O)C(=O)N[C@@H](CCCNC(=N)N)C(=O)N[C@H](C(=O)N[C@@H](CCC(=O)O)C(=O)N[C@@H](Cc1c[nH]c2ccccc12)C(=O)N[C@@H](CC1CCCCC1)C(=O)N[C@@H](CCCNC(=N)N)C(=O)N[C@@H](CCCCN)C(=O)N[C@@H](CCCCN)C(=O)N[C@@H](CC1CCCCC1)C(=O)N[C@@H](CCC(N)=O)C(=O)N[C@@H](CCCCN)C(=O)N[C@@H](CC1CCCCC1)C(=O)N[C@@H](Cc1c[nH]cn1)C(=O)N[C@@H](CC(N)=O)C(=O)N[C@@H](Cc1ccccc1)C(N)=O)C(C)C [[Cha^24,28,31, Lys^30]hPTH(1-34)NH2] (H-SVSEIQLMHNLGKHLNSMERVEW[Cha]RKK[Cha]QK[Cha]HNF-NH2)	500 nM

More lines, now with the values ahead:

Kd	Structure (SMILES)
4 nM	CCCC[C@H](NC(=O)[C@H](CC(=O)O)NC(=O)[C@H](CCC(N)=O)NC(=O)[C@H](CC(C)C)NC(=O)[C@H](CCCCN)NC(=O)[C@H](CCCCN)NC(=O)[C@H](CCCNC(=N)N)NC(=O)[C@H](CC(C)C)NC(=O)[C@H](Cc1c[nH]c2ccccc12)NC(=O)[C@H](CCC(=O)O)NC(=O)[C@@H](NC(=O)[C@H](CCCNC(=N)N)NC(=O)[C@H](CCC(=O)O)NC(=O)[C@H](CCSC)NC(=O)[C@H](CO)NC(=O)[C@H](CC(N)=O)NC(=O)[C@H](CC(C)C)NC(=O)[C@H](Cc1c[nH]cn1)NC(=O)[C@H](CCCCN)NC(=O)CNC(=O)[C@H](CC(C)C)NC(=O)[C@H](CC(N)=O)NC(=O)[C@H](Cc1c[nH]cn1)NC(=O)[C@H](CCSC)NC(=O)[C@H](CC(C)C)NC(=O)[C@H](CCC(N)=O)NC(=O)[C@@H](NC(=O)[C@H](CCC(=O)O)NC(=O)[C@H](CO)NC(=O)[C@@H](NC(=O)[C@@H](N)CO)C(C)C)[C@@H](C)CC)C(C)C)C(=O)N[C@@H](Cc1c[nH]cn1)C(=O)N[C@@H](CC(N)=O)C(=O)N[C@@H](Cc1ccccc1)C(N)=O [[Nle^31]hPTH(1-34)NH2] (H-SVSEIQLMHNLGKHLNSMERVEWLRKKLQD[Nle]HNF-NH2)
7 nM	CC[C@H](C)[C@H](NC(=O)[C@H](CCC(=O)O)NC(=O)[C@H](CO)NC(=O)[C@@H](NC(=O)[C@@H](N)CO)C(C)C)C(=O)N[C@@H](CCC(N)=O)C(=O)N[C@@H](CC1CCCCC1)C(=O)N[C@@H](CCSC)C(=O)N[C@@H](Cc1c[nH]cn1)C(=O)N[C@@H](CC(N)=O)C(=O)N[C@@H](CC1CCCCC1)C(=O)NCC(=O)N[C@@H](CCCCN)C(=O)N[C@@H](Cc1c[nH]cn1)C(=O)N[C@@H](CC(C)C)C(=O)N[C@@H](CC(N)=O)C(=O)N[C@@H](CO)C(=O)N[C@@H](CCSC)C(=O)NC(C)(C)C(=O)N[C@@H](CCCNC(=N)N)C(=O)N[C@H](C(=O)N[C@@H](CCC(=O)O)C(=O)N[C@@H](Cc1c[nH]c2ccccc12)C(=O)N[C@@H](CC(C)C)C(=O)N[C@@H](CCCNC(=N)N)C(=O)N[C@@H](CCCCN)C(=O)N[C@@H](CCCCN)C(=O)N[C@@H](CC(C)C)C(=O)N[C@@H](CCC(N)=O)C(=O)N[C@@H](CC(=O)O)C(=O)N[C@H](C(=O)N[C@@H](Cc1c[nH]cn1)C(=O)N[C@@H](CC(N)=O)C(=O)N[C@@H](Cc1ccccc1)C(N)=O)C(C)C)C(C)C [[Cha^7,11, Aib^19]hPTH(1-34)NH2] (H-SVSEIQ[Cha]MHN[Cha]GKHLNSM[Aib]RVEWLRKKLQDVHNF-NH2)
4 nM	CC[C@H](C)[C@H](NC(=O)[C@H](CCC(=O)O)NC(=O)[C@H](CO)NC(=O)[C@@H](NC(=O)[C@@H](N)CO)C(C)C)C(=O)N[C@@H](CCC(N)=O)C(=O)N[C@@H](CC(C)C)C(=O)N[C@@H](CCSC)C(=O)N[C@@H](Cc1c[nH]cn1)C(=O)N[C@@H](CC(N)=O)C(=O)N[C@@H](CC(C)C)C(=O)NCC(=O)N[C@@H](CCCCN)C(=O)N[C@@H](Cc1c[nH]cn1)C(=O)N[C@@H](CC(C)C)C(=O)NC(C)(C)C(=O)N[C@@H](CO)C(=O)N[C@@H](CCSC)C(=O)NC(C)(C)C(=O)N[C@@H](CCCNC(=N)N)C(=O)N[C@H](C(=O)N[C@@H](CCC(=O)O)C(=O)N[C@@H](Cc1c[nH]c2ccccc12)C(=O)N[C@@H](CC(C)C)C(=O)N[C@@H](CCCNC(=N)N)C(=O)N[C@@H](CCCCN)C(=O)N[C@@H](CCCCN)C(=O)N[C@@H](CC(C)C)C(=O)N[C@@H](CCC(N)=O)C(=O)N[C@@H](CC(=O)O)C(=O)N[C@H](C(=O)N[C@@H](Cc1c[nH]cn1)C(=O)N[C@@H](CC(N)=O)C(=O)N[C@@H](Cc1ccccc1)C(N)=O)C(C)C)C(C)C [[Aib^16,19]hPTH(1-34)NH2] (H-SVSEIQLMHNLGKHL[Aib]SM[Aib]RVEWLRKKLQDVHNF-NH2)

same assay, conditions: Table II, 2 hrs at room temperature, read-out: Kd (half maximal inhibition of binding of mono-125I-[Nle8,18, Tyr34(3-125I)]bPTH(1-34)NH2)

Kd	Structure (SMILES)
230 nM	CC[C@H](C)[C@H](NC(=O)[C@H](CO)NC(=O)[C@H](CCCCN)NC(=O)CNC(=O)[C@H](CCCCN)NC(=O)[C@H](CC(=O)O)NC(=O)[C@H](Cc1c[nH]cn1)NC(=O)[C@H](CC(C)C)NC(=O)[C@H](CC(C)C)NC(=O)[C@H](CCC(N)=O)NC(=O)[C@H](Cc1c[nH]cn1)NC(=O)[C@H](CCC(=O)O)NC(=O)[C@H](CO)NC(=O)[C@@H](NC(=O)[C@H](C)N)C(C)C)C(=O)N[C@@H](CCC(N)=O)C(=O)N[C@@H](CC(=O)O)C(=O)N[C@@H](CC(C)C)C(=O)N[C@@H](CCCNC(=N)N)C(=O)N[C@@H](CCCNC(=N)N)C(=O)N[C@@H](CCCNC(=N)N)C(=O)N[C@@H](CCC(=O)O)C(=O)N[C@@H](CC(C)C)C(=O)N[C@@H](CC(C)C)C(=O)N[C@@H](CCC(=O)O)C(=O)N[C@@H](CCCCN)C(=O)NC1(C(=O)N[C@@H](CC(C)C)C(=O)NC(C)(C)C(=O)N[C@@H](CCCCN)C(=O)N[C@@H](CC(C)C)C(=O)N[C@@H](Cc2c[nH]cn2)C(=O)N[C@H](C(=O)N[C@@H](C)C(N)=O)[C@@H](C)O)CCCCC1 [[Glu^22,25, Leu^23,28,31, Lys^26,30, Ahc^27, Aib^29]hPTHrP(1-34)NH2] (H-AVSEHQLLHDKGKSIQDLRRRELLEK[Ac6c]L[Aib]KLHTA-NH2; N-terminus assumed)

Source: US7632811B2, “Analogs of parathyroid hormone” (Societe de Conseils de Recherches et D'Applications …, priority 1995, dated 2009)
